What was measured:
human PPAR α = biological target: T1, human PPAR α (Homo sapiens, UniProt Q07869); assay: Luciferase assay using human PPAR α (PPAR α agonistic activity); assay type: cell-based; settings: compound 10 μM; luciferase activity of carbacyclin (10 μM) defined as 1.0; CV-1 cells with Gal4-human PPAR α ligand binding domain chimera, 42 hours
T1 construct: expressed in transfected cells; host or cells: CV-1 cells
T1 sequence (Q07869 167-468): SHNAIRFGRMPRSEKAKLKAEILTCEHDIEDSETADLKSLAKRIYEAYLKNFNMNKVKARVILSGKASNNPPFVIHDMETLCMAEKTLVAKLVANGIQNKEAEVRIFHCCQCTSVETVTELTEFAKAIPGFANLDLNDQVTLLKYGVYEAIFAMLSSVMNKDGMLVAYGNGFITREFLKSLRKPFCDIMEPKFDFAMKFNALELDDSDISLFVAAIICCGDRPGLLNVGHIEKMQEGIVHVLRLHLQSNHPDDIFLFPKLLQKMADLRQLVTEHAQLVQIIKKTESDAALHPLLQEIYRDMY

human PPAR γ = biological target: T2, human PPAR γ (Homo sapiens, UniProt P37231); assay: Luciferase assay using human PPAR γ (PPAR γ agonistic activity); assay type: cell-based; settings: compound 10 μM; luciferase activity of troglitazone (10 μM) defined as 1.0; CV-1 cells with Gal4-human PPAR γ ligand binding domain chimera, 42 hours
T2 construct: expressed in transfected cells; host or cells: CV-1 cells
T2 sequence (P37231 204-505): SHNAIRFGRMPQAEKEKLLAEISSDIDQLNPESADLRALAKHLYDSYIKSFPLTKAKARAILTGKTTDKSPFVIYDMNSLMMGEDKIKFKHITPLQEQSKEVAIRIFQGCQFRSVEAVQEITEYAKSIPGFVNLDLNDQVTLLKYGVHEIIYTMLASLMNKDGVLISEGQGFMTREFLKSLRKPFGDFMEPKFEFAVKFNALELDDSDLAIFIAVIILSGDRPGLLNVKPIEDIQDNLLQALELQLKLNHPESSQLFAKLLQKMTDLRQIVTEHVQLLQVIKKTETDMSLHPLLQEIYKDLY

SMILES: Cc1ccc(-c2nc(CCOc3cccc4c3CCCN4CCC(=O)O)c(C)o2)cc1 [Example 2]
- Relative Activity to a positive control compound (carbacyclin = 1) (human PPAR α): 0.5
- Relative Activity to a positive control compound (troglitazone = 1) (human PPAR γ): 6.7
